Entries after “also recorded” stand apart in the source; their conditions may differ.
Tested on: bacteria, fungi, and/or yeasts
Format: binding
Details: microorganism(s) the targeting peptide binds, as listed in Table 2

| Substance | Target(s) |
| --- | --- |
| 1T-76 (EMRLSKFFRDFILWRKK) | S. pneumoniae |
| 1T-77 (EMRISRIILDFLFLRKK) | S. pneumoniae |
| 1T-78 (FFKTIFVLILGALGVAAGLYIEKNYIDK) | S. pneumoniae |
| 1T-79 (FGTPWSITNFWKKNFNDRPDFDSDRRRY) | S. pneumoniae |
| 1T-80 (GGNLGPGFGVIIP) | S. pneumoniae |
| 1T-81 (AIATGLDIVDGKFDGYLWA) | S. pneumoniae |
| 1T-82 (FGVGVGIALFMAGYAIGKDLRKKFGKSC) | S. pneumoniae |
| 1T-83 (QKPRKNETFIGYIQRYDIDGNGYQSLPCPQN) | S. pneumoniae |
| 1T-84 (FRKKRYGLSILLWLNAFTNLVNSIHAFYMTLF) | S. pneumoniae |
| 1T-85 (VMASLTWRMRAASASLPTHSRTDA) | A. naeslundii, F. nucleatum, P. gingivalis,; also recorded: S. epidermidis, S. gordonii,; also recorded: S. mitis, S. mutans, S. oralis,; also recorded: S. salivarious, S. sanguinis |
| 1T-86 (HRKNPVLGVGRRHRAHNVA) | S. mitis, S. oralis, S. salivarious |
| 1T-87 (EAVGQDLVDAHHP) | S. mitis, S. mutans, S. oralis |
| 1T-89 (HEDDKRRGMSVEVLGFEVVQHEE) | S. mitis, S. mutans |
| 1T-90 (RNVIGQVL) | S. gordonii, S. mitis, S. mutans,; also recorded: S. oralis, S. sanguinis |
| 1T-91 (TSVRPGAAGAAVPAGAAGAAGAGWRWP) | S. mitis, S. mutans, S. oralis, S. sanguinis |
| 1T-92 (GQDEGQRRAGVGEGQGVDG) | S. mitis, S. mutans |
| 1T-93 (AMRSVNQA) | S. epidermidis, S. gordonii, S. mitis,; also recorded: S. mutans, S. oralis, S. sanguinis |
| 1T-94 (DQVAHSGDMLVQARRRDS) | S. mitis, S. mutans, S. oralis |
| 1T-95 (GHLLRVGGRVGGVGGVAGACAQPFGGQ) | S. gordonii, S. mitis, S. mutans,; also recorded: S. oralis, S. sanguinis |
| 1T-96 (VAGACAQPFGGQ) | S. gordonii, S. mitis, S. mutans,; also recorded: S. oralis, S. sanguinis |
| 1T-97 (GVAERNLDRITVAVAIIWTITIVGLGLVAKLG) | A. naeslundii, F. nucleatum, P. gingivalis,; also recorded: S. epidermidis, S. gordonii,; also recorded: S. mitis, S. mutans, S. oralis,; also recorded: S. salivarious, S. sanguinis |
| 1T-98 (VRSAKAVKALTAAGYTGELVNVSGGMKAWLGQ) | A. naeslundii, F. nucleatum, P. gingivalis,; also recorded: S. epidermidis, S. gordonii,; also recorded: S. mitis, S. mutans, S. oralis,; also recorded: S. salivarious, S. sanguinis |

| Substance | Target(s) |
| --- | --- |
| 1T-99 (MKAWLGQ) | S. gordonii, S. mitis, S. mutans,; also recorded: S. oralis, S. sanguinis |
| 1T-100 (LDPLEPRIAPPGDRSHQGAPACHRDPLRGRSARDAER) | S. gordonii, S. mitis, S. mutans |
| 1T-101 (RLRVGRATDLPLTSFAVGVVRNLPDAPAH) | A. naeslundii, P. gingivalis, S. epidermidis,; also recorded: S. gordonii, S. mitis,; also recorded: S. mutans, S. oralis, S. sanguinis |
| 1T-102 (WKRLWPARILAGHSRRRMRWMVVWRYFAAT) | A. naeslundii, F. nucleatum, P. gingivalis,; also recorded: S. epidermidis, S. gordonii,; also recorded: S. mitis, S. mutans, S. oralis,; also recorded: S. salivarious, S. sanguinis |
| 1T-103 (AQFYEAIITGYALGAGQRIGQL) | A. naeslundii, F. nucleatum, P. gingivalis,; also recorded: S. epidermidis, S. gordonii,; also recorded: S. mitis, S. mutans, S. oralis,; also recorded: S. sanguinis |
| 1T-104 (RAVAAHLQGRHHGHQVRRQRHGQR) | S. mitis |
| 1T-105 (GEGLPPPVLHLPPPRMSGR) | S. epidermidis, S. gordonii, S. mitis,; also recorded: S. mutans, S. oralis |
| 1T-106 (DALRRSRSQGRRHR) | S. gordonii, S. mitis, S. mutans,; also recorded: S. oralis, S. salivarious |
| 1T-107 (SPVPRFTAVGGVSRGSP) | A. naeslundii, S. epidermidis, S. gordonii,; also recorded: S. mitis, S. mutans, S. oralis,; also recorded: S. salivarious, S. sanguinis |
| 1T-108 (WGPLGPERPLW) | S. gordonii, S. mitis, S. mutans,; also recorded: S. oralis, S. salivarious, S. sanguinis |
| 1T-109 (VTTNVRQGAGS) | A. naeslundii, S. epidermidis, S. gordonii,; also recorded: S. mitis, S. mutans, S. oralis,; also recorded: S. salivarious, S. sanguinis |
| 1T-110 (LAAKTAVCVGRAFM) | A. naeslundii, P. gingivalis, S. epidermidis,; also recorded: S. gordonii, S. mitis,; also recorded: S. mutans, S. oralis, S. sanguinis |
| 1T-111 (GRLSRREEDPATSIILLRGAYRMAVF) | A. naeslundii, F. nucleatum, P. gingivalis,; also recorded: S. epidermidis, S. gordonii,; also recorded: S. mitis, S. mutans, S. oralis,; also recorded: S. salivarious, S. sanguinis |
| 1T-112 (SDNDGKLILGTSQ) | S. gordonii |
| 1T-113 (HGAHQRTGQRLHHHRGRTVSGCRQNPVAGVDPDEHR) | S. mitis |
| 1T-114 (RQAPGPGLVTITAACSAPGSRSR) | A. naeslundii, P. gingivalis, S. epidermidis,; also recorded: S. gordonii, S. mitis,; also recorded: S. mutans, S. oralis, S. sanguinis |
| 1T-115 (LLIERFSNHH) | A. naeslundii, F. nucleatum, P. gingivalis,; also recorded: S. epidermidis, S. gordonii,; also recorded: S. mitis, S. mutans, S. oralis,; also recorded: S. salivarious, S. sanguinis |
| 1T-116 (MILHRRRDR) | A. naeslundii, P. gingivalis, S. epidermidis,; also recorded: S. gordonii, S. mitis,; also recorded: S. mutans, S. oralis, S. salivarious,; also recorded: S. sanguinis |
| 1T-117 (GPGVVGPAPFSRLPAHALNL) | S. mutans |
| 1T-118 (TASPPAPSDQGLRTAFPATLLIALAALARISR) | A. naeslundii, F. nucleatum, P. gingivalis,; also recorded: S. epidermidis, S. gordonii,; also recorded: S. mitis, S. mutans, S. oralis,; also recorded: S. salivarious, S. sanguinis |
| 1T-119 (SPATQKAPTRAQPSRAPVQDCGDGRPTAAPDDVERLSPR) | S. gordonii, S. mitis, S. mutans,; also recorded: S. oralis |
| 1T-120 (DVRDRVDLAGADLCAAHATR) | A. naeslundii, F. nucleatum, P. gingivalis,; also recorded: S. epidermidis, S. gordonii,; also recorded: S. mitis, S. mutans, S. oralis,; also recorded: S. salivarious, S. sanguinis |

| Substance | Target(s) |
| --- | --- |
| 1T-121 (FAKETGFGIGGAQEGWWIIADIYGPNPF) | S. gordonii, S. mitis, S. mutans,; also recorded: S. oralis, S. salivarious, S. sanguinis |
| 1T-122 (GAIPDPVTHRVDWEEDHQTRPSR) | S. mitis |
| 1T-123 (LVRRNAVAGRSDGLAGAEQLDLVRLQGVL) | S. gordonii |
| 1T-124 (LFDERNKIA) | S. mitis, S. mutans, S. oralis |
| 1T-125 (DAITGGNPPLSDTDGLRP) | S. epidermidis, S. gordonii, S. mutans,; also recorded: S. oralis |
| 1T-126 (QGLARPVLRRIPL) | S. gordonii, S. mitis, S. mutans |
| 1T-127 (YDPVPKRKNKNSEGKREE) | A. naeslundii, F. nucleatum, P. gingivalis,; also recorded: T. denticola, S. gordonii,; also recorded: S. mitis, S. mutans, S. oralis,; also recorded: S. salivarious, S. sanguinis |
| 1T-128 (SGSAIRMLEIATKMLKR) | A. naeslundii, P. gingivalis, S. epidermidis,; also recorded: S. gordonii, S. mitis,; also recorded: S. mutans, S. oralis, S. salivarious,; also recorded: S. sanguinis |
| 1T-129 (YDKYIKYLSIQPPFIVYFI) | A. naeslundii, P. gingivalis, S. epidermidis,; also recorded: S. gordonii, S. mitis,; also recorded: S. mutans, S. oralis, S. salivarious,; also recorded: S. sanguinis |
| 1T-130 (QKIIDMSKFLFSLILFIMIVVIYIGKSIGGYSAIVSSIMLELDTVLYNKKIFFIYK) | A. naeslundii, F. nucleatum, P. gingivalis,; also recorded: S. epidermidis, S. gordonii,; also recorded: S. mitis, S. mutans, S. oralis,; also recorded: S. salivarious, S. sanguinis |
| 1T-131 (DEVWKMLGI) | A. naeslundii, F. nucleatum, P. gingivalis,; also recorded: T. denticola, S. gordonii,; also recorded: S. mitis, S. mutans, S. oralis,; also recorded: S. salivarious, S. sanguinis |
| 1T-132 (YSKKLFEYFYFIIFILIRYLIFYKIIQNKNYYINNIAYN) | A. naeslundii, F. nucleatum, P. gingivalis,; also recorded: S. epidermidis, S. gordonii,; also recorded: S. mitis, S. mutans, S. oralis,; also recorded: S. salivarious, S. sanguinis |
| 1T-133 (YFIKDDNEALSKDWEVIGNDLKGTIDKYGKEFKVR) | A. naeslundii, P. gingivalis, S. epidermidis,; also recorded: S. gordonii, S. mitis,; also recorded: S. mutans, S. oralis, S. salivarious,; also recorded: S. sanguinis |
| 1T-134 (SRLVREIKKKCRKS) | A. naeslundii, F. nucleatum, P. gingivalis,; also recorded: S. epidermidis, S. gordonii,; also recorded: S. mitis, S. mutans, S. oralis,; also recorded: S. salivarious, S. sanguinis |
| 1T-135 (FESLLPQATKKIVNNKGSKINKIF) | A. naeslundii, P. gingivalis, S. epidermidis,; also recorded: S. gordonii, S. mitis,; also recorded: S. mutans, S. oralis, S. salivarious,; also recorded: S. sanguinis |
| 1T-136 (ELLTQIRLALLYSVNEW) | A. naeslundii, F. nucleatum, P. gingivalis,; also recorded: S. epidermidis, S. gordonii,; also recorded: S. mitis, S. mutans, S. oralis,; also recorded: S. salivarious, S. sanguinis |
| 1T-137 (PLNFYRAVKENRLPLSEKNINDFTNIKLKVSPKLINLLQESSIFYNFSPKKRNTN) | A. naeslundii, F. nucleatum, P. gingivalis,; also recorded: S. epidermidis, S. gordonii,; also recorded: S. mitis, S. mutans, S. oralis,; also recorded: S. salivarious, S. sanguinis |
| 1T-138 (YPNEYCIFLENLSLEELKEIKAINGETLNLEEIINERKNLKD) | A. naeslundii, F. nucleatum, P. gingivalis,; also recorded: S. epidermidis, S. gordonii,; also recorded: S. mitis, S. mutans, S. oralis,; also recorded: S. salivarious, S. sanguinis |
| 1T-139 (AVAGAAVGALLGNDARSTAVGAAIGGALGAGAGELTKNK) | A. naeslundii, S. gordonii, S. mitis,; also recorded: S. mutans, S. oralis |
| 1T-140 (IKGTIAFVGEDYVEIRVDKGVKLTFRKSAIANVINNNQQ) | A. naeslundii, F. nucleatum, P. gingivalis,; also recorded: S. epidermidis, S. gordonii,; also recorded: S. mitis, S. mutans, S. oralis,; also recorded: S. salivarious, S. sanguinis |
| 1T-141 (KKFIILLFILVQGLIFSATKTLSDIIAL) | F. nucleatum, P. gingivalis, S. epidermidis,; also recorded: S. gordonii, S. mitis,; also recorded: S. mutans, S. oralis, S. sanguinis |
| 1T-142 (FTQGIKRIVLKRLKED) | A. naeslundii, F. nucleatum, P. gingivalis,; also recorded: T. denticola, S. gordonii,; also recorded: S. mitis, S. mutans, S. oralis,; also recorded: S. salivarious, S. sanguinis |

Source: patent US20120003661A1, “METHODS AND DEVICES FOR THE SELECTIVE DETECTION OF MICROORGANISMS” (C3 JIAN, INC., priority 2010, published 2012)
